Results from PubChem BioAssay AID248 (DTP/NCI, 2004).
Values joined by “and” are separate entries in the source; they are usually repeats but may differ in a detail not shown here. Identical values can stand only once. Inconclusive results and toxic doses are left out.

Tested on: L1210 leukemia ip in BDF1 mice, survival T/C
Assay: NCI In Vivo Anticancer Drug Screen. Data for tumor model L1210 Leukemia (intraperitoneal) in B6D2F1 (BDF1) mice
Conditions: endpoint: mean survival time, higher = longer survival
How it was run: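 Read-out is survival time, reported as the treated-group measurement over the vehicle-control measurement.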

[1] = dose: 100.0 mg/kg/injection, schedule: Q01DX001 (ip), vehicle: saline
[2] = dose: 200.0 mg/kg/injection, schedule: Q01DX001 (ip), vehicle: saline
[3] = dose: 400.0 mg/kg/injection, schedule: Q01DX001 (ip), vehicle: saline
[4] = dose: 25.0 mg/kg/injection, schedule: Q01DX009 (ip), vehicle: other

SMILES: Cc1ccc(C(=O)N/N=C/C(CC(O)C(O)CO)=N/NC(=O)c2ccc(C)cc2)cc1 (stereo not drawn)
- T/C (dose: 100.0 mg/kg/injection, schedule: Q04DX003 (ip), vehicle: alcohol): 93 % of control
- T/C (dose: 200.0 mg/kg/injection, schedule: Q04DX003 (ip), vehicle: alcohol): 96 % of control

SMILES: Cc1ccc(C(c2ccc(C)c(C)c2)C(O)C(O)C(O)CO)cc1C (stereo not drawn)
- T/C [1]: 94 % of control and 100 % of control
- T/C [2]: 102 % of control and 96 % of control
- T/C [3]: 97 % of control and 96 % of control

SMILES: COc1ccc(OC)c(C2=CCCCCC2)c1OC
- T/C (dose: 100.0 mg/kg/injection, schedule: Q01DX009 (ip), vehicle: saline with Tween-80): 95 % of control
- T/C (dose: 200.0 mg/kg/injection, schedule: Q01DX009 (ip), vehicle: saline with Tween-80): 106 % of control
- T/C (dose: 400.0 mg/kg/injection, schedule: Q01DX009 (ip), vehicle: saline with Tween-80): 100 % of control

SMILES: O=C1c2ccccc2C(=O)N1CC(=O)N(C(=O)NC1CCCCC1)C1CCCCC1
- T/C (dose: 100.0 mg/kg/injection, schedule: Q01DX001 (ip), vehicle: water): 109 % of control
- T/C (dose: 100.0 mg/kg/injection, schedule: Q01DX009 (ip), vehicle: water): 103 % of control
- T/C (dose: 100.0 mg/kg/injection, schedule: Q04DX003 (ip), vehicle: water): 94 % of control
- T/C (dose: 200.0 mg/kg/injection, schedule: Q01DX001 (ip), vehicle: water): 104 % of control
- T/C (dose: 200.0 mg/kg/injection, schedule: Q01DX009 (ip), vehicle: water): 95 % of control
- T/C (dose: 200.0 mg/kg/injection, schedule: Q04DX003 (ip), vehicle: water): 96 % of control
- T/C (dose: 400.0 mg/kg/injection, schedule: Q01DX001 (ip), vehicle: water): 98 % of control
- T/C (dose: 400.0 mg/kg/injection, schedule: Q01DX009 (ip), vehicle: water): 103 % of control
- T/C (dose: 400.0 mg/kg/injection, schedule: Q04DX003 (ip), vehicle: water): 97 % of control

SMILES: COc1ccc2c(c1)C(Br)N(S(=O)(=O)c1ccc(C)cc1)CCC2=O (stereo not drawn)
- T/C [4]: 97 % of control
- T/C (dose: 50.0 mg/kg/injection, schedule: Q01DX009 (ip), vehicle: other): 95 % of control
- T/C (dose: 100.0 mg/kg/injection, schedule: Q01DX009 (ip), vehicle: other): 92 % of control
- T/C (dose: 100.0 mg/kg/injection, schedule: Q04DX003 (ip), vehicle: other): 92 % of control
- T/C (dose: 200.0 mg/kg/injection, schedule: Q01DX009 (ip), vehicle: other): 104 % of control
- T/C (dose: 200.0 mg/kg/injection, schedule: Q04DX003 (ip), vehicle: other): 97 % of control
- T/C (dose: 400.0 mg/kg/injection, schedule: Q04DX003 (ip), vehicle: other): 89 % of control

SMILES: O=S(=O)(Oc1ccc(Br)cc1)C1CC1c1ccccc1 (stereo not drawn)
- T/C [1]: 106 % of control
- T/C [2]: 98 % of control
- T/C [3]: 103 % of control

SMILES: O=C(O)C(C=C(Cl)Cl)N1CCCCC1 (stereo not drawn)
- T/C (dose: 100.0 mg/kg/injection, schedule: Q04DX003 (ip), vehicle: saline): 98 % of control
- T/C (dose: 200.0 mg/kg/injection, schedule: Q04DX003 (ip), vehicle: saline): 93 % of control
- T/C (dose: 400.0 mg/kg/injection, schedule: Q04DX003 (ip), vehicle: saline): 94 % of control

SMILES: CCS(=O)(=O)CS(=O)(=O)Cc1ccccc1
- T/C (dose: 75.0 mg/kg/injection, schedule: Q04DX003 (ip), vehicle: saline): 94 % of control
- T/C (dose: 150.0 mg/kg/injection, schedule: Q04DX003 (ip), vehicle: saline): 95 % of control
- T/C (dose: 300.0 mg/kg/injection, schedule: Q04DX003 (ip), vehicle: saline): 95 % of control

SMILES: COC(=O)Cc1cccc(=O)c(O)c1C(=O)OC
- T/C (dose: 50.0 mg/kg/injection, schedule: Q01DX001 (ip), vehicle: carboxymethylcellulose (CMC)): 102 % of control
- T/C (dose: 100.0 mg/kg/injection, schedule: Q01DX001 (ip), vehicle: carboxymethylcellulose (CMC)): 102 % of control
- T/C (dose: 200.0 mg/kg/injection, schedule: Q01DX001 (ip), vehicle: carboxymethylcellulose (CMC)): 104 % of control
- T/C (dose: 400.0 mg/kg/injection, schedule: Q01DX001 (ip), vehicle: carboxymethylcellulose (CMC)): 102 % of control

SMILES: Cc1ccc(S(N)(=O)=O)cc1S(N)(=O)=O
- T/C (dose: 100.0 mg/kg/injection, schedule: Q01DX001 (ip), vehicle: Klucel (hydroxypropylcellulose) (HPC)): 94 % of control
- T/C (dose: 200.0 mg/kg/injection, schedule: Q01DX001 (ip), vehicle: Klucel (hydroxypropylcellulose) (HPC)): 92 % of control
- T/C (dose: 400.0 mg/kg/injection, schedule: Q01DX001 (ip), vehicle: Klucel (hydroxypropylcellulose) (HPC)): 105 % of control

SMILES: COC(=O)c1cn[nH]c1/N=N/N(C)C
- T/C [4]: 120 % of control
- T/C (dose: 58.0 mg/kg/injection, schedule: Q01DX009 (ip), vehicle: other): 156 % of control
- T/C (dose: 88.0 mg/kg/injection, schedule: Q01DX009 (ip), vehicle: other): 163 % of control
- T/C [1]: 107 % of control
- T/C (dose: 133.0 mg/kg/injection, schedule: Q01DX009 (ip), vehicle: saline): 155 % of control
- T/C [2]: 120 % of control
- T/C (dose: 200.0 mg/kg/injection, schedule: Q01DX009 (ip), vehicle: saline): 156 % of control
- T/C [3]: 122 % of control
